The structures appear in SMILES notation.

The first experiment addresses T1, human CXCR3 (Homo sapiens, UniProt P49682).
T1 construct: expressed in transfected cells; host or cells: CHO cells (membrane preparation)
T1 sequence (P49682 1-368): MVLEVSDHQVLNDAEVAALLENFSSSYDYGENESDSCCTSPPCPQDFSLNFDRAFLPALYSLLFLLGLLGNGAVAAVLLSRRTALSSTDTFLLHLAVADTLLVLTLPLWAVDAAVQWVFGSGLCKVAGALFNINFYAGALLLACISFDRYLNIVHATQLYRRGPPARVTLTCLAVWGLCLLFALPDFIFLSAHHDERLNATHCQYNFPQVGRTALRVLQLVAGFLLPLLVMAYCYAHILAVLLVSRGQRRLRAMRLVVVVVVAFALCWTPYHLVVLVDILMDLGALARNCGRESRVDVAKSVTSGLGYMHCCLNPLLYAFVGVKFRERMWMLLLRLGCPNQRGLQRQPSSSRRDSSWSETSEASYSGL
The experiment is described as follows: [35S]GTPγS exchange assay, CXCR3 receptor inhibition (hI-TAC-induced GTPγS-binding). The experiment is classed as biochemical. The conditions noted are these: -log IC50 (molar) inhibiting 50% of specific I-TAC-induced GTPγS-binding; membranes of human CXCR3-transfected CHO cells. The protocol:
CXCR3 Receptor Inhibition was Examined in a [^35S]GTPγS Exchange Assay
The exchange of guanosine 5′-[^35S]triphosphate was measured on membranes of human CXCR3-transfected CHO cells. [^35S]GTPγS exchange assays were performed in 96-well plates with 10 μg of membrane protein/well using basic flashplates (Perkin Elmer). Compounds were dissolved in DMSO and diluted with incubation buffer to yield required concentrations with 9% DMSO. Incubation buffer is composed of 20 mM HEPES, 100 mM NaCl, 3 μM GDP and 1 mM MgCl2, pH 7.4. […] Compound, membranes, hI-TAC (interferon-inducible T-cell alpha chemoattractant) and [^35S]GTPγS were added in a total volume of 200 μl. First, 20 μl of the appropriate compound dilution and 140 μl membranes from CXCR3-CHO cells were dissolved in membrane incubation buffer and pre-incubated for 30 minutes at 30° C. Then, 20 μl of hI-TAC dissolved at 30 nM in incubation buffer was added to the membranes and the mixture containing 1% of DMSO was incubated for another 30 minutes at 30° C. […] After 1 minute shaking and 30 minutes incubation at 30° C., flashplates were centrifuged for 5 minutes at 2500 rpm at room temperature. Flashplate bound radioactivity was determined by liquid scintillation counting. Basal GTPγS-binding was measured in 8 wells with membranes incubated in the same volume with 1% DMSO, without I-TAC. Maximal GTPγS-binding was measured in 8 wells with membranes incubated with 1% DMSO and 3 nM I-TAC. […] IC50 values were calculated using non-linear regression in Graphpad Prism.
On the technique in general: Binding of GTPγS marks nucleotide exchange on a G protein.
`O=C1CCC(c2ccncc2)(C2CCN(Cc3ccc(Br)cc3)CC2)C(=O)N1` (stereo not shown) [Compound 2] yielded a negative-log IC50 (pIC50) of 6.2. Still for that read-out and setting: as for `O=C1CCC(c2ccccc2)(C2CCN(Cc3ccc(Br)cc3)CC2)CN1` (stereo not shown) [Compound 5], the figure is 6.3. Still for that read-out and setting: as for `O=C1CCC(c2cccc(C(=O)O)c2)(C2CCN(Cc3ccc(Br)cc3)CC2)C(=O)N1` (stereo not shown) [Compound 23], the figure is 6.2; as for `O=C1CCC(c2ccccn2)(C2CCN(Cc3ccc(Br)cc3)CC2)C(=O)N1` (stereo not shown) [Compound 30], 6.3. Still for that read-out and setting: as for `CNC(=O)c1cccc(C2(C3CCN(Cc4ccc(Br)cc4)CC3)CCC(=O)NC2=O)c1` (stereo not shown) [Compound 32], the figure is 5.5; as for `NC(=O)c1cccc(C2(C3CCN(Cc4ccc(Br)cc4)CC3)CCC(=O)NC2=O)c1` (stereo not shown) [Compound 33], 5.5. `O=C1CCC(c2cccc(C(=O)N3CCOCC3)c2)(C2CCN(Cc3ccc(Br)cc3)CC2)C(=O)N1` (stereo not shown) [Compound 37] showed a pIC50 of 6.1. The same measure, in the same setting: as for `CSCN1C(=O)CCC(c2ccccc2)(C2CCN(Cc3ccc(Br)cc3)CC2)C1=O` (stereo not shown) [Compound 38], the figure is 6.0; as for `O=C1CCC(c2cccc(O)c2)(C2CCN(Cc3ccc(Br)cc3)CC2)C(=O)N1` (stereo not shown) [Compound 39], 6.0.

Staying with this experiment, now noted: -log IC50 (molar) inhibiting 50% of specific I-TAC-induced GTPγS-binding; membranes of human CXCR3-transfected CHO cells; read-out: pIC50 (converted).
Turning to `O=C1CCC(c2ccc(F)cc2F)(C2CCN(Cc3ccc(Br)cc3)CC2)C(=O)N1` (racemic) [Compound 194], the IC50 was 100 nM. Still for that read-out and setting: as for `O=C1CCC(c2ccc(F)cc2F)(C2CCN(Cc3ccc(Cl)c(F)c3)CC2)C(=O)N1` (racemic) [Compound 202], the figure is 251 nM.

For the molecule `O=C1CCC(c2ccccc2)(C2CCN(Cc3ccc(Br)cc3)CC2)C(=O)N1` (single isomer, unassigned) [Compound 14], the IC50 is 631 nM.

In the case of `CC(c1ccc(Br)cc1)N1CCC(C2(c3ccccc3)CCC(=O)NC2=O)CC1` (single isomer, unassigned) [Compound 17], the IC50 was 2000 nM.

For the molecule `CC(c1ccc(Br)cc1)N1CCC(C2(c3ccccc3)CCC(=O)NC2=O)CC1` (single isomer, unassigned) [Compound 18], the IC50 was 398 nM. Still for that read-out and setting: as for `O=C1CCC(c2ccc(F)cc2F)(C2CCN(Cc3ccc(Br)cc3)CC2)C(=O)N1` (single isomer, unassigned) [Compound 166], the figure is 63.1 nM; as for `CC(c1ccc(Br)cc1)N1CCC(C2(c3ccccc3)CCC(=O)NC2=O)CC1` (stereo not shown) [Compound 1], 398 nM.

On to `CC(c1ccc(Br)cc1)N1CCC(C2(c3ccc(F)cc3)CCC(=O)NC2=O)CC1` (stereo not shown) [Compound 3], for which the IC50 is 200 nM.

Consider `O=C1CCC(c2cccnc2)(C2CCN(Cc3ccc(Cl)cc3)CC2)C(=O)N1` (stereo not shown) [Compound 4], for which the IC50 is 794 nM.

Turning to `COc1ccc(S(=O)(=O)O)cc1C1(C2CCN(Cc3ccc(Br)cc3)CC2)CCC(=O)NC1=O` (stereo not shown) [Compound 6], the IC50 was 158 nM. With `O=C1CCC(c2ccccc2)(N2CCN(Cc3ccc(Br)cc3)CC2)C(=O)N1` (stereo not shown) [Compound 7], the IC50 is 251 nM. `CC(c1ccc(Br)cc1)N1CCC(C2(c3ccccc3)CCCNC2=O)CC1` (stereo not shown) [Compound 11]: the IC50 was 794 nM. The same measure, in the same setting: as for `O=C1CCC(c2ccc(F)cc2)(C2CCN(Cc3ccc(Br)cc3F)CC2)CN1` (stereo not shown) [Compound 15], the figure is 398 nM; as for `O=C1CCC(c2ccccc2)(C2CCN(Cc3ccc(Br)c(F)c3)CC2)C(=O)N1` (stereo not shown) [Compound 16a], 316 nM; as for `O=C1CCC(c2ccccc2)(C2CCN(Cc3ccc(Cl)cc3)CC2)C(=O)N1` (stereo not shown) [Compound 19], 1260 nM. Still for that read-out and setting: as for `O=C1CCC(c2ccccc2)(C2CCN(Cc3ccc(Cl)cc3)CC2)C(=O)N1` (stereo not shown) [Compound 20], the figure is 794 nM. The same measure, in the same setting: as for `O=C1CCC(c2cccc(C(=O)O)c2)(C2CCN(Cc3ccc(Cl)c(F)c3)CC2)C(=O)N1` (stereo not shown) [Compound 22], the figure is 251 nM; as for `CC(=O)Nc1ccccc1C1(C2CCN(Cc3ccc(Br)cc3)CC2)CCC(=O)NC1=O` (stereo not shown) [Compound 24], 1000 nM.

Regarding `O=C1CCC(c2ccc(F)cc2)(C2CCN(Cc3ccc(Cl)c(F)c3)CC2)C(=O)N1` (stereo not shown) [Compound 26], the IC50 is 200 nM. As to `O=C1CCC(c2ccccc2)(N2CCN(Cc3ccc(Cl)c(F)c3)CC2)C(=O)N1` (stereo not shown) [Compound 27], the IC50 was 2510 nM. Same read-out and setting: as for `O=C1CCC(c2ccccc2)(C2CCN(Cc3ccc4ccccc4c3)CC2)C(=O)N1` (stereo not shown) [Compound 28], the figure is 3980 nM. Same read-out and setting: as for `O=C1CCC(c2ccccn2)(C2CCN(Cc3ccc(Cl)c(F)c3)CC2)C(=O)N1` (stereo not shown) [Compound 29], the figure is 794 nM; as for `O=C1CCC(c2ccccc2)(C2CCN(Cc3ccc(Cl)c(F)c3)CC2)C(=O)N1` (stereo not shown) [Compound 31], 200 nM; as for `CN1CCN(C(=O)c2cccc(C3(C4CCN(Cc5ccc(Br)cc5)CC4)CCC(=O)NC3=O)c2)CC1` (stereo not shown) [Compound 34], 1260 nM. As to `COC(=O)c1ccc(CN2CCC(C3(c4ccccc4)CCC(=O)NC3=O)CC2)cc1` (stereo not shown) [Compound 36], the IC50 was 1260 nM. Still for that read-out and setting: as for `O=C1CCC(c2ccccc2)(C2CCN(Cc3ccc(F)cc3)CC2)C(=O)N1` (stereo not shown) [Compound 43], the figure is 3160 nM; as for `O=C1CCC(c2ccccc2)(C2CCN(Cc3ccc(F)cc3)CC2)C(=O)N1` (stereo not shown) [Compound 44], 5010 nM.

Regarding `O=C1CCC(c2ccccc2)(C2CCN(Cc3ccc(F)cc3)CC2)C(=O)N1` (stereo not shown) [Compound 45], the IC50 was 3980 nM. Same read-out and setting: as for `COc1cc(F)ccc1CN1CCC(C2(c3ccccc3)CCC(=O)NC2=O)CC1` (stereo not shown) [Compound 46], the figure is 3980 nM. Still for that read-out and setting: as for `O=C1CCC(c2ccccc2)(C2CCN(Cc3ccc(F)c(F)c3)CC2)C(=O)N1` (stereo not shown) [Compound 47], the figure is 2000 nM; as for `O=C1CCC(c2ccc(F)cc2)(C2CCN(Cc3ccc(F)c(F)c3)CC2)C(=O)N1` (stereo not shown) [Compound 49], 3980 nM. Same read-out and setting: as for `O=C1CCC(c2ccccc2)(C2CCN(Cc3ccc(F)c(F)c3F)CC2)C(=O)N1` (stereo not shown) [Compound 50], the figure is 1580 nM; as for `O=C1CCC(c2cccc(Cl)c2)(C2CCN(Cc3ccc(F)c(F)c3F)CC2)C(=O)N1` (stereo not shown) [Compound 51], 2510 nM; as for `Cc1cccc(C2(C3CCN(Cc4ccc(F)c(F)c4F)CC3)CCC(=O)NC2=O)c1` (stereo not shown) [Compound 52], 1260 nM. For the molecule `COc1cccc(C2(C3CCN(Cc4ccc(F)c(F)c4F)CC3)CCC(=O)NC2=O)c1` (stereo not shown) [Compound 53], the IC50 was 2000 nM. As to `O=C1CCC(c2ccc(F)cc2)(C2CCN(Cc3ccc(F)c(F)c3F)CC2)C(=O)N1` (stereo not shown) [Compound 54], the IC50 was 1260 nM. Same read-out and setting: as for `O=C1CCC(c2ccccc2)(C2CCN(Cc3ccc(F)c(Cl)c3)CC2)C(=O)N1` (stereo not shown) [Compound 55], the figure is 3160 nM. As to `O=C1CCC(c2ccc(F)cc2)(C2CCN(Cc3ccc(F)c(Cl)c3)CC2)C(=O)N1` (stereo not shown) [Compound 56], the IC50 is 5010 nM.

Still in this experiment, the particulars now being: pIC50, -log IC50 (molar) inhibiting 50% of specific I-TAC-induced GTPγS-binding; membranes of human CXCR3-transfected CHO cells.
Regarding `O=C1CCC(c2ccccc2)(C2CCN(Cc3ccc(Br)cc3)CC2)C(=O)N1` (single isomer, unassigned) [Compound 13], the IC50 is 316 nM. The same measure, in the same setting: as for `COc1cccc(C2(C3CCN(Cc4ccc(Br)cc4)CC3)CCC(=O)NC2=O)c1` (stereo not shown) [Compound 8], the figure is 1580 nM. The same measure, in the same setting: as for `O=C1CCC(c2ccccc2)(C2CCN(Cc3ccc(Br)cc3)CC2)C(=O)N1` (stereo not shown) [Compound 10], the figure is 316 nM; as for `Nc1cccc(C2(C3CCN(Cc4ccc(Br)cc4)CC3)CCC(=O)NC2=O)c1` (stereo not shown) [Compound 35], 316 nM.

The same experiment, now with this note: read-out: pIC50 (converted).
Take `Cc1cccc(C2(C3CCN(Cc4ccc(Br)cc4)CC3)CCC(=O)NC2=O)c1` (stereo not shown) [Compound 9]: the IC50 is 2000 nM.

In general, pIC50 refers to −log10 of the IC50, conventionally taken in molar units. High values mean a small IC50, low ones a large IC50.

The values above are taken from US20090030039A1, “Piperidine Derivatives as Cxcr3 Receptor Antagonists” (priority 2006, published 2009).
